From ChEMBL document CHEMBL6114965, “Novel dual-targeting PROTAC degraders of GSK-3β and CDK5: A promising approach for pancreatic cancer treatment” (Bioorg Med Chem, 2025)
The source made the active and inactive calls. The rule behind the calls is not given here.

Key:
[1] = tested on: PANC-1; experiment: Antiproliferative activity against human PANC-1 cells assessed as inhibition of cell viability by MTT assay; type: functional, cell-based
[2] = tested on: MIA PaCa-2; experiment: Antiproliferative activity against human MIA PaCa-2 cells assessed as inhibition of cell viability by MTT assay; type: functional, cell-based
[3] = tested on: BXPC-3; experiment: Antiproliferative activity against human BXPC-3 cells assessed as inhibition of cell viability by MTT assay; type: functional, cell-based
[4] = tested on: ASPC1; experiment: Antiproliferative activity against human ASPC1 cells assessed as inhibition of cell viability by MTT assay; type: functional, cell-based
[5] = biological target: T1, Protein cereblon/Glycogen synthase kinase-3 beta (Homo sapiens, UniProt P49841+Q96SW2); experiment: PROTAC activity at CRBN/GSK3beta in human PANC-1 cells assessed as induction of GSK3beta degradation at 0.5 to 2.8 uM incubated for 10 hrs in presence of MG132 by Western blot analysis; type: cell-based; conditions: dose 0.5-2.8 µM
Target sequence in this assay (P49841 whole entry, looked up): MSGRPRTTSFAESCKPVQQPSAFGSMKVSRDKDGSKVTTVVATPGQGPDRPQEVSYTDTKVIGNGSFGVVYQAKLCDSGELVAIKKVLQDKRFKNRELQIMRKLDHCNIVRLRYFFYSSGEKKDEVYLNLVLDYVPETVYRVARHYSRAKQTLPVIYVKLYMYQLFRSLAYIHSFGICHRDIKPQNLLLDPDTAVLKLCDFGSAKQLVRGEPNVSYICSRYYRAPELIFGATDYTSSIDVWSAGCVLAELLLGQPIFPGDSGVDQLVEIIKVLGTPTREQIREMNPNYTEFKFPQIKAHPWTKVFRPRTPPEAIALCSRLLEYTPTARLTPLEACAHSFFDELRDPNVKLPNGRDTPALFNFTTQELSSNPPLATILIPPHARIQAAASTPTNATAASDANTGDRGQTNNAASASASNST
Target sequence in this assay (Q96SW2 whole entry, looked up): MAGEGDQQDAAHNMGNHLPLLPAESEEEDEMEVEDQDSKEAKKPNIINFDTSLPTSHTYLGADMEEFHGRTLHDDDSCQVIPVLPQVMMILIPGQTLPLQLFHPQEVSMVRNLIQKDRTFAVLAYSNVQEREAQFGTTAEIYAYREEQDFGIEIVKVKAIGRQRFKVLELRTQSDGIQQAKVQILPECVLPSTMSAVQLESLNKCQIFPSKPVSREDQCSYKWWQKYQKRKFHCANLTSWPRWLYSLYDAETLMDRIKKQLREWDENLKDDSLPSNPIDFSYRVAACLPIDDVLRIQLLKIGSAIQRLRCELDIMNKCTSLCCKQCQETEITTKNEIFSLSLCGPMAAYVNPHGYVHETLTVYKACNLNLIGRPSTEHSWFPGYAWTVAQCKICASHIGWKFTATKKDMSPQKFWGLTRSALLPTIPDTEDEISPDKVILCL

[6] = biological target: T2, Protein cereblon/Cyclin-dependent kinase 5 (Homo sapiens, UniProt Q00535+Q96SW2); experiment: PROTAC activity at CRBN/CDK5 in human PANC-1 cells assessed as induction of CDK5 degradation at 0.5 to 2.8 uM incubated for 10 hrs in presence of MG132 by Western blot analysis; type: cell-based; conditions: dose 0.5-2.8 µM
Target sequence in this assay (Q00535 whole entry, looked up): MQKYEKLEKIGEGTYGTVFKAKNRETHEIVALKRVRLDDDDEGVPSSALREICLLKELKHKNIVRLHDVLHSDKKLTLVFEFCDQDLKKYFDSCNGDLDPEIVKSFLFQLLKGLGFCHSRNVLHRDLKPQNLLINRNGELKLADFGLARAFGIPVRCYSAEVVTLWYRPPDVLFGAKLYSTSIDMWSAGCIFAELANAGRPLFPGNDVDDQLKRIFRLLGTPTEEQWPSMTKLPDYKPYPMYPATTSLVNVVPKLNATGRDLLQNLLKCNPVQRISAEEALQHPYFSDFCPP
Target sequence in this assay (Q96SW2 whole entry, looked up): as the sequence (Q96SW2 whole entry, looked up) above

[7] = biological target: T1, Protein cereblon/Glycogen synthase kinase-3 beta; experiment: PROTAC activity at CRBN/GSK3beta in human PANC-1 cells assessed as induction of GSK3beta degradation at 1 to 2.8 uM incubated for 10 hrs by Western blot analysis; type: cell-based; conditions: dose 1-2.8 µM
Target sequence in this assay (P49841 whole entry, looked up): as the sequence (P49841 whole entry, looked up) above
Target sequence in this assay (Q96SW2 whole entry, looked up): as the sequence (Q96SW2 whole entry, looked up) above

[8] = biological target: T2, Protein cereblon/Cyclin-dependent kinase 5; experiment: PROTAC activity at CRBN/CDK5 in human PANC-1 cells assessed as induction of CDK5 degradation at 1 to 2.8 uM incubated for 10 hrs by Western blot analysis; type: cell-based; conditions: dose 1-2.8 µM
Target sequence in this assay (Q00535 whole entry, looked up): as the sequence (Q00535 whole entry, looked up) above
Target sequence in this assay (Q96SW2 whole entry, looked up): as the sequence (Q96SW2 whole entry, looked up) above

[9] = biological target: T1, Protein cereblon/Glycogen synthase kinase-3 beta; experiment: PROTAC activity at CRBN/GSK3beta in human PANC-1 cells assessed as induction of GSK3beta degradation by target engagement binding based cell-ELISA
Target sequence in this assay (P49841 whole entry): as the sequence (P49841 whole entry, looked up) above
Target sequence in this assay (Q96SW2 whole entry): as the sequence (Q96SW2 whole entry, looked up) above

[10] = biological target: T1, Protein cereblon/Glycogen synthase kinase-3 beta; experiment: PROTAC activity at CRBN/GSK3beta in human PANC-1 cells assessed as induction of GSK3beta degradation by measuring maximal efficacy by target engagement binding based cell-ELISA relative to control
Target sequence in this assay (P49841 whole entry, looked up): as the sequence (P49841 whole entry, looked up) above
Target sequence in this assay (Q96SW2 whole entry, looked up): as the sequence (Q96SW2 whole entry, looked up) above

[11] = biological target: T2, Protein cereblon/Cyclin-dependent kinase 5; experiment: PROTAC activity at CRBN/CDK5 in human PANC-1 cells assessed as induction of CDK5 degradation by target engagement binding based cell-ELISA
Target sequence in this assay (Q00535 whole entry): as the sequence (Q00535 whole entry, looked up) above
Target sequence in this assay (Q96SW2 whole entry): as the sequence (Q96SW2 whole entry, looked up) above

[12] = biological target: T2, Protein cereblon/Cyclin-dependent kinase 5; experiment: PROTAC activity at CRBN/CDK5 in human PANC-1 cells assessed as induction of CDK5 degradation by measuring maximal efficacy by target engagement binding based cell-ELISA relative to control
Target sequence in this assay (Q00535 whole entry, looked up): as the sequence (Q00535 whole entry, looked up) above
Target sequence in this assay (Q96SW2 whole entry, looked up): as the sequence (Q96SW2 whole entry, looked up) above

[13] = Permeability of compound in PBS at pH 7.4 at 500 uM incubated for 4 hrs by UV spectrophotometry based PAMPA; type: ADME; conditions: read-out: permeability
[14] = biological target: T3, Cytochrome P450 1A2 (Homo sapiens, UniProt P05177); experiment: Inhibition of CYP1A2 (unknown origin) using phenacetin as substrate […]; type: ADME
T3 sequence (P05177 whole entry): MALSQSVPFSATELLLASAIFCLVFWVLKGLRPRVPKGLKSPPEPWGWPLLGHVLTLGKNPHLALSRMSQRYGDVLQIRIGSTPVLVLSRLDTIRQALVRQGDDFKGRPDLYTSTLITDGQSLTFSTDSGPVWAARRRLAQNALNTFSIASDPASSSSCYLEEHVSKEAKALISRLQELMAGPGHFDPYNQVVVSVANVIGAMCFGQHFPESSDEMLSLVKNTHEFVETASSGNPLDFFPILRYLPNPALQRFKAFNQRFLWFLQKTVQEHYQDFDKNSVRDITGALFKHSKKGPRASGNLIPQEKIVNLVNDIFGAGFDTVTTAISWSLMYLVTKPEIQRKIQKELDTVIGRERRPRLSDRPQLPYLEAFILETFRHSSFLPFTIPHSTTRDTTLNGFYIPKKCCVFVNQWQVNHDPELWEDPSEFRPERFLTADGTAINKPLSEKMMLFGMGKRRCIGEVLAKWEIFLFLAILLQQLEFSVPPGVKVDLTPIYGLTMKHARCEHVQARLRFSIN

[15] = biological target: T4, Cytochrome P450 2B6 (Homo sapiens, UniProt P20813); experiment: Inhibition of CYP2B6 (unknown origin) using bupropion as substrate […]; type: ADME
T4 sequence (P20813 whole entry): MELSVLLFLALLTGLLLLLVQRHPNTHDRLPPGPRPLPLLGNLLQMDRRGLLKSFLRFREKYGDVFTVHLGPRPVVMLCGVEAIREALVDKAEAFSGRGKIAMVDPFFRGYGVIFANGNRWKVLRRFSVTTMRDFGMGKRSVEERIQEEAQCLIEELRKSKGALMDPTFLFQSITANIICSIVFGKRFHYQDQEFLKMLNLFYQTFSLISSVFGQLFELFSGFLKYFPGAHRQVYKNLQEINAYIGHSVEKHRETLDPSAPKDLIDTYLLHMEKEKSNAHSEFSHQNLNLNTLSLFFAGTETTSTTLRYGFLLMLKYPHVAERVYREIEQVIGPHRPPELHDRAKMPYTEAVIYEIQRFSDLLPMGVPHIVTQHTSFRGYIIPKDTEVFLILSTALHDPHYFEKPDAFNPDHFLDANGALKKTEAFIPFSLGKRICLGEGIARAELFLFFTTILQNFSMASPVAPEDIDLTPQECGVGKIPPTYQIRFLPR

[16] = biological target: T5, Cytochrome P450 2C8 (Homo sapiens, UniProt P10632); experiment: Inhibition of CYP2C8 (unknown origin) using amodiaquine as substrate […]; type: ADME
T5 sequence (P10632 whole entry): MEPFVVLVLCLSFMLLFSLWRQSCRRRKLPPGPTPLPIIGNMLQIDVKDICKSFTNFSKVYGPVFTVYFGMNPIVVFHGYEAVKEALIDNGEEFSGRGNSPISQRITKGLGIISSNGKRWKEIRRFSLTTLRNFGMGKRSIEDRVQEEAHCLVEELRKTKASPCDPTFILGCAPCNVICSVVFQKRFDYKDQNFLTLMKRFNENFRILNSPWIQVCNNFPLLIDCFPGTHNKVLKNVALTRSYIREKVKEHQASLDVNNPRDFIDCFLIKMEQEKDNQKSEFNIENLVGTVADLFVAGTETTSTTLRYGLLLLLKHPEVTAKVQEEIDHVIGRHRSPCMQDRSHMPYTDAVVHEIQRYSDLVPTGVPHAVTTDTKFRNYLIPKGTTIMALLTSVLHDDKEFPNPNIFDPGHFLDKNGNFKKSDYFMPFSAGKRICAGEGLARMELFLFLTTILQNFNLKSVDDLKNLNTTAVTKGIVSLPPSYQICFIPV

[17] = biological target: Cytochrome P450 2C9 (Homo sapiens, UniProt P11712); experiment: Inhibition of CYP2C9 (unknown origin) using diclofenac as substrate […]; type: ADME
Cytochrome P450 2C9, sequence (P11712 whole entry): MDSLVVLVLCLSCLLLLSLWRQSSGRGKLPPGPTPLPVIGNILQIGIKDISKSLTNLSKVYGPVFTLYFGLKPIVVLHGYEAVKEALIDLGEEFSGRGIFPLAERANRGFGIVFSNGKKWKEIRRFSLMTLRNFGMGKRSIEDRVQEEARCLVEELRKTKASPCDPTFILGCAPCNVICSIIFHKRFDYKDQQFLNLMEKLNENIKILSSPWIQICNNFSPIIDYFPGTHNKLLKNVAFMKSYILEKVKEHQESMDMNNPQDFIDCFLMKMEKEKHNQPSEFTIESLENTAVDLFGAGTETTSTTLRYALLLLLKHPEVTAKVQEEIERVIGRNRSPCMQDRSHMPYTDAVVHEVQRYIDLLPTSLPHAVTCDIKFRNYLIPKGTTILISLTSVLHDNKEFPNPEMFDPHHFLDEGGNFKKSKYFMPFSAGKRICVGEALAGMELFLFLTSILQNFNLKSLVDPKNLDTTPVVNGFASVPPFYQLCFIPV

[18] = biological target: Cytochrome P450 2C19 (Homo sapiens, UniProt P33261); experiment: Inhibition of CYP2C19 (unknown origin) using s-mephenytoin as substrate […]; type: ADME
Cytochrome P450 2C19, sequence (P33261 whole entry): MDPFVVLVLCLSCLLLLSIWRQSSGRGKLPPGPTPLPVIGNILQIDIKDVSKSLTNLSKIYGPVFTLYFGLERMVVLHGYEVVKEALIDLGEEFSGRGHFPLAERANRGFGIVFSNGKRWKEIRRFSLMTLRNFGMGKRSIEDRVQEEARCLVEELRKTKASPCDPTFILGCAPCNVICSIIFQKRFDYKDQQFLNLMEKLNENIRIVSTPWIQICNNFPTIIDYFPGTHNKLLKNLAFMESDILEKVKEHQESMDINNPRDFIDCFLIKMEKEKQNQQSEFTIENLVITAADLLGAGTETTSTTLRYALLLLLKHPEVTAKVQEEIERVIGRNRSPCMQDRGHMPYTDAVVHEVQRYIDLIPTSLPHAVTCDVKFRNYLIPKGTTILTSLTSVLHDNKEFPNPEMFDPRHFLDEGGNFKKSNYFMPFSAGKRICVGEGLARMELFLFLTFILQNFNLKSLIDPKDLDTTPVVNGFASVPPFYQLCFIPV

[19] = biological target: Cytochrome P450 2D6 (Homo sapiens, UniProt P10635); experiment: Inhibition of CYP2D6 (unknown origin) using dextromethorphan as substrate […]; type: ADME
Cytochrome P450 2D6, sequence (P10635 whole entry): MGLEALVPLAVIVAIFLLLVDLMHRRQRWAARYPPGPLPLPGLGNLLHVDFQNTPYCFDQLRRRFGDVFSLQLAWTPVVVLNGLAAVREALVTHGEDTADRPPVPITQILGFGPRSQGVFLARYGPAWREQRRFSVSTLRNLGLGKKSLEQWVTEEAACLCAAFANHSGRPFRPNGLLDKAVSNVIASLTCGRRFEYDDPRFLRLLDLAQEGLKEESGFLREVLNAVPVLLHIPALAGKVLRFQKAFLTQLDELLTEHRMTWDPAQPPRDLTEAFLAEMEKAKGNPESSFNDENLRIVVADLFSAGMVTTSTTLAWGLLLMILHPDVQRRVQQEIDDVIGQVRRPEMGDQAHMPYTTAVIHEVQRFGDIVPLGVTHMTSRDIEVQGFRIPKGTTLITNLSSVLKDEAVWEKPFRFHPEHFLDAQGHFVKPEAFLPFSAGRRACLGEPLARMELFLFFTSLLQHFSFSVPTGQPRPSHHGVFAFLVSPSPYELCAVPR

[20] = biological target: T6, Cytochrome P450 3A4 (Homo sapiens, UniProt P08684); experiment: Inhibition of CYP3A4 (unknown origin) using midazolam as substrate […]; type: ADME
T6 sequence (P08684 whole entry): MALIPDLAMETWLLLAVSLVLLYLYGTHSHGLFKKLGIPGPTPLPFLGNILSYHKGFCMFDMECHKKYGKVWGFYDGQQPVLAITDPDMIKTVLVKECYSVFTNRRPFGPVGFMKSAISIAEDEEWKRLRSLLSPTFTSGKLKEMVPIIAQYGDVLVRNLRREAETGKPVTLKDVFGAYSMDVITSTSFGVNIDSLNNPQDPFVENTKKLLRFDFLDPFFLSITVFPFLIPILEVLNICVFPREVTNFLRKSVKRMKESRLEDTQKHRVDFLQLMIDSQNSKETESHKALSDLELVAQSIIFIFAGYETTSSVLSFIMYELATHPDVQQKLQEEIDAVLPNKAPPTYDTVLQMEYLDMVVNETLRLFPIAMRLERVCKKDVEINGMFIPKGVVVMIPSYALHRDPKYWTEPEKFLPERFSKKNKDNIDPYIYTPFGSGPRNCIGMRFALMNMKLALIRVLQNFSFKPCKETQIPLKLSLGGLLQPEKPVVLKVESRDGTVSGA

[21] = biological target: T6, Cytochrome P450 3A4; experiment: Inhibition of CYP3A4 (unknown origin) using testosterone as substrate […]; type: ADME
[22] = Metabolic stability in pooled human liver microsomes assessed as half-life at 100 uM measured upto 120 mins by LC-MS/MS analysis; type: ADME, Microsome
[23] = Cytotoxicity against human HepG2 cells; type: toxicity, cell-based
[24] = Cytotoxicity against human A549 cells; type: toxicity, cell-based
[25] = Cmax in mouse at 5 mg/kg, po; type: ADME, organism-based; conditions: in vivo
[26] = AUC in mouse at 5 mg/kg, po; type: ADME, organism-based; conditions: in vivo
[27] = Half-life in mouse at 5 mg/kg, po; type: ADME, organism-based; conditions: in vivo
[28] = Tmax in mouse at 5 mg/kg, po; type: ADME, organism-based; conditions: in vivo
[29] = Observed clearance in mouse at 5 mg/kg, po; type: ADME, organism-based; conditions: in vivo
[30] = Oral bioavailability in mouse at 5 mg/kg; type: ADME, organism-based; conditions: in vivo
[31] = Cmax in mouse at 5 mg/kg, iv; type: ADME, organism-based; conditions: in vivo
[32] = AUC in mouse at 5 mg/kg, iv; type: ADME, organism-based; conditions: in vivo
[33] = Half-life in mouse at 5 mg/kg, iv; type: ADME, organism-based; conditions: in vivo
[34] = Tmax in mouse at 5 mg/kg, iv; type: ADME, organism-based; conditions: in vivo
[35] = Bioavailability in mouse at 5 mg/kg, […]; type: ADME, organism-based; conditions: in vivo

IC50 [1]: 1.81 µM
IC50 [2]: 2.16 µM
IC50 [3]: 2.95 µM
IC50 [4]: 1.96 µM
Activity [5]: inactive
Activity [6]: inactive
Activity [7]: Active
Activity [8]: Active
DC50 [9]: 0.042 µM
Emax [10]: 90%
DC50 [11]: 0.048 µM
Emax [12]: 88%
Papp at 4 h, 500 µM [13]: 79.9 ×10⁻⁶ cm/s
IC50 [14]: 55.2 µM
IC50 [15]: 45.3 µM
IC50 [16]: > 100 µM
IC50 [17]: 33.3 µM
IC50 [18]: 46.2 µM
IC50 [19]: 45.5 µM
IC50 [20]: 39.2 µM
IC50 [21]: 25.3 µM
half-life at 100 µM [22]: 0.934 h
Cmax [25]: 761 ng/mL
AUC [26]: 1550 ng·h/mL
half-life [27]: 4 h
Tmax [28]: 2 h
CL/F [29]: 90 mL/min/kg
F [30]: 15%
Cmax [31]: 961 ng/mL
AUC [32]: 3700 ng·h/mL
half-life [33]: 6 h
Tmax [34]: 4 h
bioavailability [35]: 35%
Compound: O=C1CCC(N2C(=O)c3cccc(NCCCCCn4cc(CN5CCN(CCCn6cc(C7=C(c8c[nH]c9ccccc89)C(=O)NC7=O)c7ccccc76)CC5)nn4)c3C2=O)C(=O)N1 (stereo not given)
CC50 [23]: 9.05 µM
CC50 [24]: 8.23 µM
